Measured values reported in patent US9682982B2, “Inhibitors of adapter associated kinase 1, compositions comprising them, and methods of their use” (Lexicon Pharmaceuticals, Inc., priority 2014, dated 2017).

How the values were obtained:
[1] = tested on: formalin-induced nociception in male C57 mice; test: Formalin Assay (paw flinching); format: in vivo, mouse; settings: male C57 mice, 1, 3, 10 and 30 mpk, given 30 minutes prior to formalin; one-way ANOVA P<0.01 dose effect; FIG. 4 and 5
Description: Mice were tested for nociception with Automatic Nociception Analyzers (purchased from the Ozaki lab at University of California, San Diego). A metal band was placed around the left hind paw of each mouse with superglue 30 minutes prior to testing. After the 30-minute acclimation period, 20 μl of 5% formalin was subcutaneously injected in the dorsal surface of the left hind paw. Mice were individually housed in cylindrical chambers for 45 minutes. Fresh 5% formalin solution was prepared by diluting formaldehyde (Formalde-fresh 20%, Fisher Scientific, Fair Lawn, N.J.) with distilled water. Investigatory compounds were administered 30 minutes prior to formalin injection.
A computer software recorded flinches per minute, total flinches for Phase I (acute phase=first 8 minutes), and total flinches for Phase II (tonic phase between 20-40 minutes) through an electromagnetic field. See Yaksh T L, Ozaki G, McCumber D, Rathbun M, Svensson C, Malkmus S, Yaksh M C. An automated flinch detecting system for use in the formalin nociceptive bioassay. J Appl Physiol., 2001; 90:2386-402.

[2] = tested on: tactile allodynia after spinal nerve ligation in mice; test: Mouse Chung Assay (spinal nerve ligation, von Frey tactile allodynia); format: in vivo; settings: P<0.0001 in RM ANOVA, FIG. 6
Excerpt: The compound 3-methyloxetan-3-yl-4-(3-(2-methoxypyridin-3-yl)pyrazolo[1,5-a]pyrimidin-5-yl)piperazine-1-carboxylate was studied in the Chung assay. See Chaplan S R, Bach F W, Pogrel J W, Chung J M, Yaksh T L., Quantitative assessment of tactile allodynia in the rat paw, J Neurosci Methods 1994; 53:55-63; Chung J M, Kim H K, Chung K., Segmental spinal nerve ligation model of neuropathic pain, Methods Mol Med. 2004; 99:35-45.
Wild-type hybrid (C57BL/6J-Tyr^c-Brd×129S5/SvEvBrd) male mice were between 5-7 weeks of age at the time of spinal nerve ligation by the conventional Chung protocol. Spinal nerve ligation was carried out according to the procedure devised by Kim and Chung with modifications. Briefly, mice were anesthetized with isoflurane (2% at the oxygen flow rate of […]). A skin incision (1 cm) was made 1 mm to the left of the dorsal midline, using the level of iliac crests as the mid point of the incision. […] In an initial experiment using hybrid mice, the presumptive locations of spinal nerve L5 and L6 were determined by using the sacroiliac junction as the landmark to locate L6, as previously described in SNL models in rats and mice. […] Mice were individually housed after the procedure and were monitored until complete recovery from anesthesia. […]

[3] = target: T1, AAK1 (full length human, NCBI accession no. NP_055726.2) (Homo sapiens, UniProt Q2M2I8); test: P81 Filter Plate Assay; format: biochemical; set-up: NP_055726.2; settings: 0.2 nM AAK1 and 2 μM ATP in 2× mixes, 33P-ATP, one hour at RT; read-out: P81 assay result (inhibition of AAK1 phosphorylation of Mu2)
T1 sequence (Q2M2I8 1-863 isoform Q2M2I8-2): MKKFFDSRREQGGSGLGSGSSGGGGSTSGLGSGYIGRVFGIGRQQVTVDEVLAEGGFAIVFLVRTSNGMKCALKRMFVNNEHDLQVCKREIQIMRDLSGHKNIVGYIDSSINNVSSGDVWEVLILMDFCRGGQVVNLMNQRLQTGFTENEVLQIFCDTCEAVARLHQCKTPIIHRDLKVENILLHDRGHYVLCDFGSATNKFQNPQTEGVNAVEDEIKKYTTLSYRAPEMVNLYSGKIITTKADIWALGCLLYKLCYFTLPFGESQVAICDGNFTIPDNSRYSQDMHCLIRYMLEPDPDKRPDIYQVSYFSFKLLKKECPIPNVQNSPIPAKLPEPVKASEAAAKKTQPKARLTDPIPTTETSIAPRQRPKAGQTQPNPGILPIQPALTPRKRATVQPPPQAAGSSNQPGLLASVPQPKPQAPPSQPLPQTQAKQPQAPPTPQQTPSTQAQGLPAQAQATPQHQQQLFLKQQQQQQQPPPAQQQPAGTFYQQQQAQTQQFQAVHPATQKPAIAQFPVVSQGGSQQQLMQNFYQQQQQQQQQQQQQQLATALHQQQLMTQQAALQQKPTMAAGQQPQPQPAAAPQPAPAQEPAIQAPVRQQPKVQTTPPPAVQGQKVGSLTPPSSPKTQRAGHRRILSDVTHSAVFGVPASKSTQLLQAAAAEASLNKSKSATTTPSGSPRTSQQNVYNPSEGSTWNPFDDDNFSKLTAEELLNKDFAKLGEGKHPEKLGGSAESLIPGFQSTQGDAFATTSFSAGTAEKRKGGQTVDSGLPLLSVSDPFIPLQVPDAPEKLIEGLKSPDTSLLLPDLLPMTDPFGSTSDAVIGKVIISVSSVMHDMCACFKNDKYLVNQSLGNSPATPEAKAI
Description: Compounds were serially diluted into a Labcyte LDV plate (Labcyte, cat #LP-0200) using a Mutiprobe (PerkinElmer) and Biomek FX (Beckman Coulter) so that the highest compound concentration was at 96 μM. Compounds were then pinged (75 nL per well) into a Greiner 384-well reaction plate (Greiner, #781076) using an ECHO 550 Liquid Handler (Labcyte). A total of 12 μl reaction buffer (IMAP buffer containing Tween and DTT, from Molecular Devices) was then added to each well of columns 1 and 13 for the negative controls and 12 μl of 2×AAK1 (0.2 nM full-length human protein, NCBI accession no. NP_055726.2) was added to the remaining wells. Enzyme was then pre-incubated with compound for 10 minutes at RT. Reactions were initiated upon Minitrak (PerkinElmer) addition of 12 μl substrate mix containing 2× Mu2 (0.2 μM, full length human protein), 2× cold ATP (2 μM), and 1.3 μCi of hot ^33P-ATP. Reactions proceeded for one hour at RT. Meanwhile, Millipore 384-well P81 filter plates (Millipore, catalog #MZPHNOW10) were placed on a plate washer (Zoom ZW, from Titertek) and pre-wet with 50 μl 1% phosphoric acid. […] The bottom of each filter plate was sealed followed by addition of 20 μl Microscint 40 to each well, sealing the top of the plates with Flashplate cover, and then waiting one hour until reading on the TopCount (PerkinElmer).

[4] = target: T1, AAK1 (full length human, NCBI accession no. NP_055726.2); test: HEK281 Cell-Based Assay (phospho-mu2 Western blot in HEK293F cells transfected with AAK1 and AP2M1); set-up: HA; expressed in transfected cells; host or cells: HEK293F; settings: 3 hours incubation, read-out: HEK281 cell-based assay IC50 (inhibition of mu2 phosphorylation)
Description: HEK293F cells were cultured in media containing DMEM (Gibco, cat. #11965), 10% FBS (SAFC Biosciences, cat. #12103C), 1×GPS (glutamine, penicillin and streptomycin). On day one, cells were plated on a 10 cm dish so that they are ˜80% confluent at time of transfection. Roughly 12 million cells were in a 10 cm dish at time of transfection. On day two, each dish was transfected with 48 ug DNA and 144 ul Lipofectamine 2000 (Invitrogen, cat. #11668-019). The DNA was comprised of a mixture (per 10 cm dish) containing 3 ug AAK1/HA/pIRES (full length human, NCBI accession no. NP_055726.2), 45 μg Flag/AP2MI/pcDNA (full length human), and 1.5 ml OPTI-MEM. The Lipofectamine 2000 is made up of a mixture (per 10 cm dish) containing 144 μl Lipofectamine 2000 and 1.5 ml OPTI-MEM. Each mixture was transferred to individual 15 ml tubes and incubated at RT for 5 minutes, and then the two mixes were combined and incubated at RT for 20 minutes. Growth media was then aspirated from each 10 cm plate and replaced with 10 ml of DMEM+10% FBS (no GPS). Finally, 3 ml DNA/Lipofectamine mix was added to each 10 cm dish and mix gently followed by incubate of plate overnight at 37° C. and 5% CO2.
On day three, compounds were diluted in 100% DMSO at 1000× final concentration, followed by 3-fold serial dilutions for a total of 5 concentrations tested. Four compounds were tested per 10 cm dish. […]

[5] = tested on: PC12 cells; settings: Kuai et al. 2011; cited from earlier work
[6] = target: AAK1 (Homo sapiens, UniProt Q2M2I8); settings: cited from earlier work
Sequence of AAK1 (Q2M2I8 whole entry, species assumed): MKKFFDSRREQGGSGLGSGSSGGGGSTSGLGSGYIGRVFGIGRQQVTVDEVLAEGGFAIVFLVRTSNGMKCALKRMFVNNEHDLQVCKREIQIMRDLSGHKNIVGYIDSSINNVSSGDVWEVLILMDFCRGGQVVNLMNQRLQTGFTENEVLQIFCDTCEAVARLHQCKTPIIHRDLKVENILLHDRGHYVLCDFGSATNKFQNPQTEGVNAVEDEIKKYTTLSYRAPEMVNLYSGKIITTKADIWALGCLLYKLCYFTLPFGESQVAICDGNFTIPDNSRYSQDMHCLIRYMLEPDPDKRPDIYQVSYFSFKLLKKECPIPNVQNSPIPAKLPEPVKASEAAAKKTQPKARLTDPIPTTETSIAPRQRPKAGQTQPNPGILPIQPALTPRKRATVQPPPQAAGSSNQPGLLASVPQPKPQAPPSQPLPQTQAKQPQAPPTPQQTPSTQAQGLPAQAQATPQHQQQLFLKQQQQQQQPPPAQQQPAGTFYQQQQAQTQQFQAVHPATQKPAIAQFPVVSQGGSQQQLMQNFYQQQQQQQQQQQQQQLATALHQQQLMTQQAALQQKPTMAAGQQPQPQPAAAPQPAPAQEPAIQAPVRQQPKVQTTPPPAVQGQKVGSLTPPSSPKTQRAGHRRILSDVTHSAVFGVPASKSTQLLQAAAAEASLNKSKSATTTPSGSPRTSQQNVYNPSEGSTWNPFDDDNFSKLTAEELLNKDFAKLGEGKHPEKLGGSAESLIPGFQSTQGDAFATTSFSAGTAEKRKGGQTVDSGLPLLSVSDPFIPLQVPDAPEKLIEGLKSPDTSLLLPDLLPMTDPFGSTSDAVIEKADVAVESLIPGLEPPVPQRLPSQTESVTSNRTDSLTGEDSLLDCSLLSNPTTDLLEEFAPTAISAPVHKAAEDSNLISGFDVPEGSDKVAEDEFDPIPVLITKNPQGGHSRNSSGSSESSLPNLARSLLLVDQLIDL

IC50 [3] [nM] | IC50 [4] [nM] | SMILES | Formalin phase 2 (tonic phase) flinches versus vehicle [1] | Effect in the Chung assay (von Frey 50% withdraw threshold) [2] | Effect on Neuregulin-1 induced neurite outgrowth [5] | Effect on AAK1 kinase activity [6]
0.9 | 4.7 | COc1ncccc1-c1cnn2ccc(N3CCN(C(=O)OC4(C)COC4)CC3)nc12 [3-methyloxetan-3-yl-4-(3-(2-methoxypyridin-3-yl)pyrazolo[1,5-a]pyrimidin-5-yl)piperazine-1-carboxylate] | dramatic effect | dose-dependent, significantly significant effect |  | 
 |  | COC(=O)[C@@]1(O)C[C@H]2O[C@]1(C)n1c3ccccc3c3c4c(c5c6ccccc6n2c5c31)C(=O)NC4 [K252a] |  |  | potentiation of Neuregulin-1 induced neurite outgrowth | inhibits AAK1 kinase activity
